Data on seven molecules can be found in ChEMBL document CHEMBL1955738, “Synthesis and antitumor activity of 5,6-dihydro-17-hydroxy icogenin analogs” (Eur J Med Chem, 2012).

As usually defined, the IC50 is the concentration that gives 50% inhibition. Higher therefore signals lower potency.

Assay type in all cases: functional, cell-based
The test system of assay [1] is KB. As to the kind of experiment: Cytotoxicity against human KB cells by MTT assay. (In general: Formazan colour is commonly taken as a measure of viable cells.)
For assay [2], the system named is HeLa. As to the kind of experiment: Cytotoxicity against human HeLa cells by MTT assay.
The test system of assay [3] is A549. Briefly: Cytotoxicity against human A549 cells by MTT assay.
For assay [4], the system named is A2780. Briefly: Cytotoxicity against human A2780 cells by MTT assay.
The test system of assay [5] is BGC-823. As to the kind of experiment: Cytotoxicity against human BGC823 cells by MTT assay.
Assay [6] deals with HCT-8. Briefly: Cytotoxicity against human HCT8 cells by MTT assay.
Assay [7] deals with Bel-7402. Briefly: Cytotoxicity against human Bel7402 cells by MTT assay.
Assay [8] relates to HL-60. Briefly: Cytotoxicity against human HL60 cells.

Take `CO[C@]1(CC[C@@H](C)CO)O[C@H]2C[C@H]3[C@@H]4CCC5C[C@@H](O)CC[C@]5(C)[C@H]4CC[C@]3(C)[C@@]2(O)[C@@H]1C` (some centres not stated): the IC50 in assay [1], in assay [2], in assay [3], in assay [4], in assay [5] and in assay [6] was greater than 10 µM each time. The same molecule displayed an IC50 in assay [7] greater than 10 µM.

Regarding `CO[C@]1(CC[C@@H](C)CO)O[C@H]2C[C@H]3[C@@H]4CCC5C[C@@H](O[C@@H]6O[C@H](CO)[C@@H](O)[C@H](O)[C@H]6O)CC[C@]5(C)[C@H]4CC[C@]3(C)[C@@]2(O)[C@@H]1C` (some centres not stated), the IC50 in assay [1], in assay [2], in assay [3], in assay [4], in assay [5] and in assay [6] was greater than 10 µM in each case. Besides, in assay [7], the IC50 was greater than 10 µM.

As for `CO[C@]1(CC[C@@H](C)CO)O[C@H]2C[C@H]3[C@@H]4CCC5C[C@@H](O[C@H]6O[C@H](CO)[C@@H](O)[C@H](O)[C@H]6O[C@@H]6O[C@@H](C)[C@H](O)[C@@H](O)[C@H]6O)CC[C@]5(C)[C@H]4CC[C@]3(C)[C@@]2(O)[C@@H]1C` (some centres not stated), the IC50 worked out at 5.97 µM in assay [1]; 7.8 µM in assay [2]; 3.68 µM in assay [3]; 7.96 µM in assay [4]; 4.29 µM in assay [5]; 3.38 µM in assay [6]. The same molecule displayed an IC50 in assay [7] of 8.3 µM.

As to `CO[C@]1(CC[C@@H](C)CO)O[C@H]2C[C@H]3[C@@H]4CCC5C[C@@H](O[C@H]6O[C@H](CO)[C@@H](O[C@@H]7O[C@H](CO)[C@@H](O)[C@H](O)[C@H]7O)[C@H](O)[C@H]6O[C@@H]6O[C@@H](C)[C@H](O)[C@@H](O)[C@H]6O)CC[C@]5(C)[C@H]4CC[C@]3(C)[C@@]2(O)[C@@H]1C` (some centres not stated), the IC50 in assay [1] came to 5.24 µM; in assay [2], 8.31 µM; in assay [3] it was 1.9 µM; in assay [4] it was 8.21 µM; in assay [5], 7.97 µM; in assay [6], 6.05 µM. Moreover, in assay [7], the IC50 was 9.69 µM.

Take `C[C@@H]1CC[C@@]2(OC1)O[C@H]1C[C@H]3[C@@H]4CC=C5C[C@@H](O[C@@H]6O[C@H](CO)[C@@H](O[C@@H]7O[C@@H](C)[C@H](O)[C@@H](O)[C@H]7O)[C@H](O)[C@H]6O[C@@H]6O[C@@H](C)[C@H](O)[C@@H](O)[C@H]6O)CC[C@]5(C)[C@H]4CC[C@]3(C)[C@H]1[C@@H]2C` [DIOSCIN]: the IC50 in assay [1] is 0.53 µM; in assay [2], 0.5 µM; in assay [3] it was 0.81 µM; in assay [4], 0.87 µM; in assay [5], 1.08 µM; in assay [6], 0.34 µM. This molecule came in with an IC50 in assay [7] of 0.81 µM.

Regarding `CO[C@]1(CC[C@H](C)CO)O[C@H]2C[C@H]3[C@@H]4CC=C5C[C@@H](O[C@@H]6O[C@H](CO)[C@@H](O)[C@H](O[C@@H]7O[C@H](CO)[C@@H](O)[C@H](O)[C@H]7O)[C@H]6O[C@@H]6O[C@@H](C)[C@H](O)[C@@H](O)[C@H]6O)CC[C@]5(C)[C@H]4CC[C@]3(C)[C@H]2[C@@H]1C` [ICOGENIN], the IC50 in assay [8] was found to be 2.6 µM.

As to `C[C@@H](CC[C@@]1(O)O[C@H]2C[C@H]3[C@@H]4CC[C@@H]5C[C@@H](O[C@@H]6O[C@H](CO)[C@H](O)[C@H](O)[C@H]6O[C@@H]6O[C@H](CO)[C@@H](O)[C@H](O)[C@H]6O)CC[C@]5(C)[C@H]4CC[C@]3(C)[C@H]2[C@@H]1C)CO[C@@H]1O[C@H](CO)[C@@H](O)[C@H](O)[C@H]1O` [TIMOSAPONIN BII], the IC50 in assay [8] stood at 15.5 µg/mL.
